Measurements: US20230346952A1, “CANNABINOID GLYCOSIDE PRODRUGS AND METHODS OF SYNTHESIS” (priority 2015, published 2023)

Legend:
Test in all cases: biochemical
[1] = target: T1, safety screen panel of human pharmacological targets (Homo sapiens, UniProt P08908); conditions: read-out: percent inhibition: 5-HT1A(h) {agonist radiogilgand)
T1 sequence (P08908 1-422): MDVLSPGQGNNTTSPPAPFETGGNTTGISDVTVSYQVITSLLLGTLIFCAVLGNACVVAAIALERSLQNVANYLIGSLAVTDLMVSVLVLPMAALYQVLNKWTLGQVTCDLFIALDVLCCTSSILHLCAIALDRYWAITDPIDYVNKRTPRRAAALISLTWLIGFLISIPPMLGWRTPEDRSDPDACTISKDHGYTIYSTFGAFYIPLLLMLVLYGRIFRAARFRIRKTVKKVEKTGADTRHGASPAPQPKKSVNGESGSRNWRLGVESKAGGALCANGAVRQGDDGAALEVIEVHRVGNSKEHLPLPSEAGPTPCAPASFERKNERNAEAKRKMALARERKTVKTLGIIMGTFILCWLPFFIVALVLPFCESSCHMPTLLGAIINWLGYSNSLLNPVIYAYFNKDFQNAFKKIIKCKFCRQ

[2] = target: T2, safety screen panel of human pharmacological targets (Rattus norvegicus, UniProt P21396); conditions: read-out: percent inhibition: MAO-A (antagonist radioligand)
T2 sequence (P21396 1-526): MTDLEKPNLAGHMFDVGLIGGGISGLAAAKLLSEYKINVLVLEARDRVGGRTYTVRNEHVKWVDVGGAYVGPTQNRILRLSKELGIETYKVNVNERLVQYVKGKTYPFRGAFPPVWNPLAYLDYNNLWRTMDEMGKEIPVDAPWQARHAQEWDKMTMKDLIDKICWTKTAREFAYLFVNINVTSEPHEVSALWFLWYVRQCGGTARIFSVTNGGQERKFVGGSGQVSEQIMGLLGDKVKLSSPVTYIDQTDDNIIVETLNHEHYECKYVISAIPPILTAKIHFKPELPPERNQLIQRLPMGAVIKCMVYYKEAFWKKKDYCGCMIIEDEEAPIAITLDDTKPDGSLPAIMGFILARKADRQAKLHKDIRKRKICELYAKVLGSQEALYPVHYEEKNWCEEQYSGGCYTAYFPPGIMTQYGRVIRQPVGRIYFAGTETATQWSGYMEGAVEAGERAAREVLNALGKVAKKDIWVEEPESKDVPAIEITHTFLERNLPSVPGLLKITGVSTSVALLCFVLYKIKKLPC

[3] = target: safety screen panel of human pharmacological targets (Homo sapiens, UniProt P20309); conditions: read-out: percent inhibition: M3 (h) (antagonist radioligand)
[4] = target: safety screen panel of human pharmacological targets (Homo sapiens, UniProt P31645); conditions: read-out: percent inhibition: 5-HT transporter (h) (antagonist radioligand)
[5] = target: safety screen panel of human pharmacological targets (Homo sapiens, UniProt P28223); conditions: read-out: percent inhibition: 5-HT2A (h) (agonist radioligand)
[6] = target: safety screen panel of human pharmacological targets (Homo sapiens, UniProt P35372); conditions: read-out: percent inhibition: mu (MOP) (h) (agonist radioligand)
[7] = target: safety screen panel of human pharmacological targets (Homo sapiens, UniProt Q14432); conditions: read-out: percent inhibition: PDE3A (h)
[8] = target: safety screen panel of human pharmacological targets (Homo sapiens, UniProt P34972); conditions: read-out: percent inhibition: CB2 (h) (agonist radioligand)
[9] = target: safety screen panel of human pharmacological targets (Homo sapiens, UniProt P08588); conditions: read-out: percent inhibition: beta 1 (h) {agonist radioligand)
[10] = target: safety screen panel of human pharmacological targets (Homo sapiens, UniProt P29274); conditions: read-out: percent inhibition: A2A (h) (agonist radioligand)
[11] = target: T3, safety screen panel of human pharmacological targets (Homo sapiens, UniProt P32238); conditions: read-out: percent inhibition: CCK1 (CCKA) (h) (agonist radioligand)
T3 sequence (P32238 1-428): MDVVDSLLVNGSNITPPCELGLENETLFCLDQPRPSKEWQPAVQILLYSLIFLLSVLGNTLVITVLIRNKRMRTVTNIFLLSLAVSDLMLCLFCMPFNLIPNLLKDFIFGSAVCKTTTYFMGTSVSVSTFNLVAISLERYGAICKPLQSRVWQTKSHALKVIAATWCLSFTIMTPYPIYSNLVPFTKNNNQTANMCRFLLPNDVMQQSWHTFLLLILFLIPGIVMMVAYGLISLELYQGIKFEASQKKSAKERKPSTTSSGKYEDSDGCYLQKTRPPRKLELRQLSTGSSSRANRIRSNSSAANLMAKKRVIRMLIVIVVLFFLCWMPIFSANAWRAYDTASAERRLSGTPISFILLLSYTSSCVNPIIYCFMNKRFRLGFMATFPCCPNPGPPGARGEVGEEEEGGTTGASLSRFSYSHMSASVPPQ

[12] = target: safety screen panel of human pharmacological targets (Homo sapiens, UniProt Q01959); conditions: read-out: percent inhibition: dopamine transporter (b) (antagonist radioligand)
[13] = target: T4, safety screen panel of human pharmacological targets (Homo sapiens, UniProt P25101); conditions: read-out: percent inhibition: ETA (h) (agonist radioligand)
T4 sequence (P25101 21-427): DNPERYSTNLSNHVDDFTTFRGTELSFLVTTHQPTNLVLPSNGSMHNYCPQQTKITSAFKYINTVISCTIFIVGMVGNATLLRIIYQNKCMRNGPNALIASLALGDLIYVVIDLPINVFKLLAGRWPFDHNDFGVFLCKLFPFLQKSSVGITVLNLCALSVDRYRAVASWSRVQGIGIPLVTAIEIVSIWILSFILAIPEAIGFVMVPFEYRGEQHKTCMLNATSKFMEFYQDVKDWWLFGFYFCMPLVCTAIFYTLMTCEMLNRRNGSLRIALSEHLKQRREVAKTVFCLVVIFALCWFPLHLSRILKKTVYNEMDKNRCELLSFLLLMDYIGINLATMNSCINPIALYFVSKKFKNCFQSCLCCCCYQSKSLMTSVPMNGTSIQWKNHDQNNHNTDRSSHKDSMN

safety screen panel of human pharmacological targets (Homo sapiens, UniProt Q14432), sequence (Q14432 whole entry): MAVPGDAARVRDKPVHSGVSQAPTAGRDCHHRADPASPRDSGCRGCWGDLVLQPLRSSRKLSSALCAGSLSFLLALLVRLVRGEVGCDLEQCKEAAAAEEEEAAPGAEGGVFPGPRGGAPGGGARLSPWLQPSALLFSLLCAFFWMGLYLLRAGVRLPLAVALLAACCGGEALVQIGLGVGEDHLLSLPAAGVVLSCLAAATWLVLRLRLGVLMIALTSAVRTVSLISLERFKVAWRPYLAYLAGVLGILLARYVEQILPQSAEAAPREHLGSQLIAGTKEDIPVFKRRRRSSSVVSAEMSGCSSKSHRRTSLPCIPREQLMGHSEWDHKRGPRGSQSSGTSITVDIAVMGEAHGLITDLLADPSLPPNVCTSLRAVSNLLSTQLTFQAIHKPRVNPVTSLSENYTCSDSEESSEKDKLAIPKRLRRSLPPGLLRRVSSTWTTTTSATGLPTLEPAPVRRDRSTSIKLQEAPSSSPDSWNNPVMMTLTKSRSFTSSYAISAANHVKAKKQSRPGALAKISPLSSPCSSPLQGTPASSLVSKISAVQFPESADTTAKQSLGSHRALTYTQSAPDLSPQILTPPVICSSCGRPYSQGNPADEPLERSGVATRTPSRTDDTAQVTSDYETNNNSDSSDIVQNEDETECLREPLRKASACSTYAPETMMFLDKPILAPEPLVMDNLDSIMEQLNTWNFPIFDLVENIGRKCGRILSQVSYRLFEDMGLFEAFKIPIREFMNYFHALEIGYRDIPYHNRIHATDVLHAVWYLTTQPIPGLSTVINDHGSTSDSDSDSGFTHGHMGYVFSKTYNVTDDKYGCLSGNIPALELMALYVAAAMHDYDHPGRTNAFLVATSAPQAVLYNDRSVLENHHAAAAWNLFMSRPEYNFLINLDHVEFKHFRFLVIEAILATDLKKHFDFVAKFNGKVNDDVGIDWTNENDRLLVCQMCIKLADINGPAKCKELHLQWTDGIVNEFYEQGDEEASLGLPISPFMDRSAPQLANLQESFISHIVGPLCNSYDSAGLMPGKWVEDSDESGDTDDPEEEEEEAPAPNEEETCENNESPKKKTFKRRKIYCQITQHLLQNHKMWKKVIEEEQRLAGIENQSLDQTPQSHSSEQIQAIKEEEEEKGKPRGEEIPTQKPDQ
safety screen panel of human pharmacological targets (Homo sapiens, UniProt P35372), sequence (P35372 whole entry): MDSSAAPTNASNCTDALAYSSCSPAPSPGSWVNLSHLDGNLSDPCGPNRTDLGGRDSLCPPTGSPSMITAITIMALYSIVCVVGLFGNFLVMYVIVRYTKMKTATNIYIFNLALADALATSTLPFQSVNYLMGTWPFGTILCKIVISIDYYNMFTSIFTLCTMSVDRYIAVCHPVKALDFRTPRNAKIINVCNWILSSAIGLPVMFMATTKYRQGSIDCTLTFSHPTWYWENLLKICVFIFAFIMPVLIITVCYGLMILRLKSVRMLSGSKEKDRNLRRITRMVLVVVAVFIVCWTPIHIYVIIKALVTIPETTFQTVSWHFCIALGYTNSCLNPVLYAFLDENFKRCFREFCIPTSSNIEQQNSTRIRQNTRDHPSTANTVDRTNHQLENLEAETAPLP
safety screen panel of human pharmacological targets (Homo sapiens, UniProt P28223), sequence (P28223 whole entry): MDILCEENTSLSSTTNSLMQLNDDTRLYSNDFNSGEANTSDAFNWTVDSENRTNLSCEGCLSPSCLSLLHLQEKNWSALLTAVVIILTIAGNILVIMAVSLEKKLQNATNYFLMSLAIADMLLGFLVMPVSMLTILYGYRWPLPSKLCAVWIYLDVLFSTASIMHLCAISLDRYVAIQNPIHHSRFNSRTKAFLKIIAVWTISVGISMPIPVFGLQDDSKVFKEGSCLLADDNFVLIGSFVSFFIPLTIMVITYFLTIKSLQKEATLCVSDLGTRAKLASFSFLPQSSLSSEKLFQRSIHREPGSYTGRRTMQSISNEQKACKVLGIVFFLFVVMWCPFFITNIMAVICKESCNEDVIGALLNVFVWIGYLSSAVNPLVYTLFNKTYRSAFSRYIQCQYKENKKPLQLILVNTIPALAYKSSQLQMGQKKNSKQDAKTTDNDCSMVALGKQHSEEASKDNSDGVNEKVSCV
safety screen panel of human pharmacological targets (Homo sapiens, UniProt P29274), sequence (P29274 whole entry): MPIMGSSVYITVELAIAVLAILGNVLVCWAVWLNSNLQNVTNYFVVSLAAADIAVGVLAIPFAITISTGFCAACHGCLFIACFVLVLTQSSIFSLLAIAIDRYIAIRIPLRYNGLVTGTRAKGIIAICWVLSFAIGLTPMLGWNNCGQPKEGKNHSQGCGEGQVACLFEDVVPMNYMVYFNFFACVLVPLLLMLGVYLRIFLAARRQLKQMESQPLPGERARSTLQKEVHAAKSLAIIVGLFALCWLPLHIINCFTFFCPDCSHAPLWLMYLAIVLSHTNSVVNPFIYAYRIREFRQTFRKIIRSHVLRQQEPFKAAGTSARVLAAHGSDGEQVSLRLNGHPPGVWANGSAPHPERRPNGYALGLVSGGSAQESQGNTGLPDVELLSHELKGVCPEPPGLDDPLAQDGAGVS
safety screen panel of human pharmacological targets (Homo sapiens, UniProt Q01959), sequence (Q01959 whole entry): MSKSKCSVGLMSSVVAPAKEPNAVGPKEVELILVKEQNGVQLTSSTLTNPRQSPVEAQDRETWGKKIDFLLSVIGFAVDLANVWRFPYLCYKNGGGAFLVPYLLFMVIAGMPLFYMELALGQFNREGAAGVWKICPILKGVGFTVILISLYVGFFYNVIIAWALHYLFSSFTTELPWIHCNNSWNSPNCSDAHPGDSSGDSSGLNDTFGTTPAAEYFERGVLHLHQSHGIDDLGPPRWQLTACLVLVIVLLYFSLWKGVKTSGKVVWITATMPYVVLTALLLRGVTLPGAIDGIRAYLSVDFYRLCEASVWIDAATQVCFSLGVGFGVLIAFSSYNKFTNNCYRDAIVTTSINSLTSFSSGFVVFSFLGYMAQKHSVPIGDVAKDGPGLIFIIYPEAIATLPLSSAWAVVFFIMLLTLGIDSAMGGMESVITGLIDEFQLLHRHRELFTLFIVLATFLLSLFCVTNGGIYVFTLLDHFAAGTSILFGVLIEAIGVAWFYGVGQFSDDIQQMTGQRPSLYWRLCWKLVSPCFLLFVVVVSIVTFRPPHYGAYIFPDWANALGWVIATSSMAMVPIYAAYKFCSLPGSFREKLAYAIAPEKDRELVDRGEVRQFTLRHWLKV
safety screen panel of human pharmacological targets (Homo sapiens, UniProt P08588), sequence (P08588 whole entry): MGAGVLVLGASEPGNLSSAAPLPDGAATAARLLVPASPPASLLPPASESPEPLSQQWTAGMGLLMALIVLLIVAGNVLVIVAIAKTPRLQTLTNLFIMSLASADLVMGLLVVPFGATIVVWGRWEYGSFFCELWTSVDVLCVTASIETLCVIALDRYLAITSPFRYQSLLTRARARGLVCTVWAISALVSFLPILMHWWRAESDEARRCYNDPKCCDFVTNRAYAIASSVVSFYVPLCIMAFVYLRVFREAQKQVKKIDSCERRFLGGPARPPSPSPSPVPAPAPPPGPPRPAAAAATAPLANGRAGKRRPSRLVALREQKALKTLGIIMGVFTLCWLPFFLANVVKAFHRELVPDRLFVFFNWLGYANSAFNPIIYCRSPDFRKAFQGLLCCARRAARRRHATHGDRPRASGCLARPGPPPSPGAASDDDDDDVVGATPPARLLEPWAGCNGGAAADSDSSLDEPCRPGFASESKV
safety screen panel of human pharmacological targets (Homo sapiens, UniProt P20309), sequence (P20309 whole entry): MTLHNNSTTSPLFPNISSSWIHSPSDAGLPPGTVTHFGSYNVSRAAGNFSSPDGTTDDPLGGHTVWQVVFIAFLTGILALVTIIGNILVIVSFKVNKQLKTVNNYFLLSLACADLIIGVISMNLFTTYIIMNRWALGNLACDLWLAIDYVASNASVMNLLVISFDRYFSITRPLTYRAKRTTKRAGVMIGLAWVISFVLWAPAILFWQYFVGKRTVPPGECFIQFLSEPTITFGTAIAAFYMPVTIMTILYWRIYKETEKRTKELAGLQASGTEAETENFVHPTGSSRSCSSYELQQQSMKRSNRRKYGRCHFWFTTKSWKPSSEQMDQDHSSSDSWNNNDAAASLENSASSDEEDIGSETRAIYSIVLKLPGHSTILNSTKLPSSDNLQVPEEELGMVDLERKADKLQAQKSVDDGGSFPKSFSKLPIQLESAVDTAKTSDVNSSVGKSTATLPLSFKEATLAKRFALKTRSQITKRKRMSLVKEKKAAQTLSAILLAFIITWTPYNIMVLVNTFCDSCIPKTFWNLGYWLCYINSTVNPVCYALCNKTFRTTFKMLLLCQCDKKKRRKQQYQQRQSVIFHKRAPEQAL
safety screen panel of human pharmacological targets (Homo sapiens, UniProt P34972), sequence (P34972 whole entry): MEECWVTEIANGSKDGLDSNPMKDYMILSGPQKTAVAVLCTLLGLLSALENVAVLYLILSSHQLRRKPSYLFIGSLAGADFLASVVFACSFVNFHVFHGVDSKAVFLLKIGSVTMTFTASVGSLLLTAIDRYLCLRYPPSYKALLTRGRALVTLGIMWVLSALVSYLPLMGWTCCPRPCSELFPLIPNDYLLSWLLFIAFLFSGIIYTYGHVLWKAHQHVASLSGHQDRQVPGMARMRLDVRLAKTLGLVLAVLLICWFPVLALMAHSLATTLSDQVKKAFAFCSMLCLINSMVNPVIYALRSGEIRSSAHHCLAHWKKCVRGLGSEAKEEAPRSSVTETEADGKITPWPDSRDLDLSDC

Row | Structure (SMILES) | inhibition at 10 µM [1] [%] | inhibition at 10 µM [2] [%] | inhibition at 10 µM [3] [%] | inhibition at 10 µM [4] [%] | inhibition at 10 µM [5] [%] | inhibition at 10 µM [6] [%] | inhibition at 10 µM [7] [%] | inhibition at 10 µM [8] [%] | inhibition at 10 µM [9] [%] | inhibition at 10 µM [10] [%] | inhibition at 10 µM [11] [%] | inhibition at 10 µM [12] [%] | inhibition at 10 µM [13] [%]
1 | CCCCCc1cc(O)c2c(c1)OC(C)(C)[C@@H]1CCC(C)=C[C@@H]21 [VB301, Δ9-Terahydrocannabinol, reference compound] | -27 | 1 | 23 | 91 | 92 | 89 | -4 | 97 | 1 | 63 | 87 | 101 | 14
2 | CCCCCc1cc(O[C@@H]2O[C@H](CO)[C@@H](O)[C@H](O)[C@H]2O)c2c(c1)OC(C)(C)[C@@H]1CCC(C)=C[C@@H]21 [VB302, Δ9THC-1-O-glucopyranoside] | 6 | 5 | 11 | -1 | 11 | -5 | -44 | 22 | 7 | -11 | -31 | 18 | -21
3 | CCCCCc1cc(O[C@@H]2O[C@H](CO[C@@H]3O[C@H](CO)[C@@H](O)[C@H](O)[C@H]3O)[C@@H](O[C@@H]3O[C@H](CO)[C@@H](O)[C@H](O)[C@H]3O)[C@H](O)[C@H]2O)c2c(c1)OC(C)(C)[C@@H]1CCC(C)=C[C@@H]21 [VB311] | -6 | 2 | -5 | 3 | 4 | 5 | -6 | 17 | 0 | -4 | 17 | 28 | 9
